In brackets after ≈: the same amount, converted by molar mass. Entries after “also recorded” stand apart in the source; their conditions may differ. Like-named read-outs stand apart in the source and are kept apart here.
Tests used:
[1] = test system: S. suis strains isolated from pigs; settings: cited from earlier work; for S. suis strains sensitive: same survey (VetPath); for S. suis strains found to be sensitive: strains isolated from pigs, European VetPath survey 2005–2012
CYP1A2 = target: T1, CYP1A2 (Homo sapiens, UniProt P05177); experiment: CYP enzyme fluorometric activity measurement, human hepatic microsomes; settings: reference inhibitor at 6 µM; p < 0.001
T1 sequence (P05177 1-516): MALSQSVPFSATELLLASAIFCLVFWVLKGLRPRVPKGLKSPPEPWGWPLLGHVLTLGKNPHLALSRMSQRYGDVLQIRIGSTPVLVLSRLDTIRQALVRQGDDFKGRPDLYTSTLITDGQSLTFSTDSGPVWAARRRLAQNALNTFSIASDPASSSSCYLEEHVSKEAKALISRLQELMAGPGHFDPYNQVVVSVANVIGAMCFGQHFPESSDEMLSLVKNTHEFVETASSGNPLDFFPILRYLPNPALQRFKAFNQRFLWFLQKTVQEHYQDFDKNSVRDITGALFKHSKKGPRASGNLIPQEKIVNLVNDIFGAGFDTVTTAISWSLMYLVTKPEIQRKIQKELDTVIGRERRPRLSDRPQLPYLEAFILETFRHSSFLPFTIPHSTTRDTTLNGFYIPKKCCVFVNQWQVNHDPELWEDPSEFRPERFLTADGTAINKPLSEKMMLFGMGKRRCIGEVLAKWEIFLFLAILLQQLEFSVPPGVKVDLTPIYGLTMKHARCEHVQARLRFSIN
Method: (§1) The Biovision CYP assays (BioVision, Inc., Kampenhout, Belgium) employ non-fluorescent CYP2D6, 2C9, 2C19, 1A2, or 3A4 substrates able to undergo transformation into highly fluorescent detectable metabolites. […] Human hepatic microsomal supernatants were prepared (Gibco, Biocentre, Szeged, Hungary protein concentration: 20 mg/mL) separately by mixing 30 µL with 2425 µL assay buffer and with 50 µL nicotinamide adenine dinucleotide phosphate (NADPH) generating system (100×). […] Control measurements were performed in the absence of the inhibitors.
(§2) In background controls, only assay buffer excluding microsomes and test compounds was used in a volume of 70 µL. Subsequently, after incubation at 37 °C for 15 min, 30 µL of the suitable CYP substrate/NADP+ mixture was incorporated into each well, resulting in a final reaction volume of 100 µL/well. The obtained microsomal protein content was assessed using the bicinchoninic acid protein assay kit (Pierce BCA kit, Thermo Fisher Scientific, Waltham, MA, USA). In each assay, the microsomal protein concentration was calibrated to 100 µg/well. The fluorescence intensities were measured with a fluorometer (Victor X2 2030, Perkin Elmer, Waltham, MA, USA) using λex/em = 406/468 nm for CYP1A2 and for CYP2C19, λex/em = 415/502 nm for CYP2C9, λex/em = 390/468 nm for CYP2D6, and λex/em = 535/587 nm for CYP3A4 assays.

[2] = test system: Pseudomonas (P.) aeruginosa (ATCC 27853); experiment: MIC measurement (broth microdilution); assay type: cell-based; settings: source ATCC, 18–24 h at 37 °C
[3] = test system: Enterococcus (E.) faecalis (clinical isolate); experiment: MIC measurement (broth microdilution); assay type: cell-based
[4] = test system: Staphylococcus (S.) aureus (ATCC 10832); experiment: MIC measurement (broth microdilution); assay type: cell-based; settings: source ATCC, 18–24 h at 37 °C
[5] = test system: Pasteurella (P.) multocida (clinical isolate); experiment: MIC measurement (broth microdilution); assay type: cell-based; settings: source 380/22, 18–24 h at 37 °C
[6] = test system: Escherichia (E.) coli (ATCC 11775); experiment: MIC measurement (broth microdilution); assay type: cell-based; settings: source ATCC, 18–24 h at 37 °C
S. suis serotype 2 = experiment: MIC measurement (broth microdilution); assay type: cell-based, Streptococcus suis; settings: source 672/22, 18–24 h at 37 °C
[7] = test system: Salmonella (S.) enterica (clinical isolate); experiment: MIC measurement (broth microdilution); assay type: cell-based; settings: source 204/22, 18–24 h at 37 °C
Text: Bacterial strains used in this study were as follows: S. suis serotype 2 (ATCC 958242) Staphylococcus (S.) aureus (ATCC 10832), Escherichia (E.) coli (ATCC 11775), Pseudomonas (P.) aeruginosa (ATCC 27853), Pasteurella (P.) multocida (clinical isolate), Burkholderia (B.) cepacia (clinical isolate), Salmonella (S.) enterica (clinical isolate), and Enterococcus (E.) faecalis (clinical isolate). Of the clinical isolates used in this study, P. multocida is of porcine origin, B. cepacia is of human origin, and S. enterica and E. faecalis are of poultry origin. The bacterial strains were stored in the Microbiology Laboratory of the University of Veterinary Medicine, Budapest, at a temperature of −80 °C. Bacterial strains were inoculated the day before the test in 5 mL of Cation-Adjusted Mueller–Hinton Broth (CAMHB) and incubated for 18–24 h at 37 °C. The initial inoculum concentration used for the MIC assay was 5 × 10^5/mL. All wells except the first column of the working plates were filled with 90 µL CAMHB. A stock solution of inhibitors at 800 µM was then prepared, 180 µL of which was measured into the first column of plates and used to prepare a 2-based dilution on 96-well plates. After the 10th column, the tips were discarded with the 90 µL excess solution so that each column contained 90 µL of solution. Each bacterial strain was tested in a single row on the working plates. A bacterial suspension diluted to 25× was prepared on an auxiliary plate for bacterial inoculation by loading 240 µL of TSB per column of plates and adding 10–10 µL of bacterial strain suspension per well. In the next step, the isolated bacterial strains were inoculated onto the plates. Starting from column 11 (positive control) of the plates containing dilution row 2, 10 µL of bacterial suspension was added to each well, working backward. Column 11 served as a positive control (containing only bacterial suspension and broth), while column 12 served as a negative control (containing only broth). The microplates were then incubated at 37 °C for 18–24 h, and the MIC values were assessed in comparison to positive controls.

[8] = test system: Burkholderia (B.) cepacia (clinical isolate); experiment: MIC measurement (broth microdilution); assay type: cell-based
CYP2D6 = CYP2D6 (Homo sapiens, UniProt P10635); experiment: CYP enzyme fluorometric activity measurement, human hepatic microsomes; settings: reference inhibitor at 3 µM; p < 0.05
Method: as §1, §2

IPEC-J2 cells [9] = experiment: EC H2O2 production, Amplex red method; assay type: cell-based, porcine; settings: 24 h
Method: For oxidative status measurements, inhibitors MI-432, MI-471, or MI-476 were used at 50 µM in the absence and presence of S. suis for 24 h in IPEC-J2 cells and in primary porcine hepatocytes on 24-well plates. An Amplex red hydrogen peroxide assay kit was used to monitor EC hydrogen peroxide (H₂O₂) production in IPEC-J2 cells and in hepatocytes. Following the manufacturer’s instructions, cell-free supernatants were collected and mixed with the Amplex red working solution (in a ratio of 1:1). A Victor X2 2030 fluorometer was used to detect fluorescence intensity at wavelengths 530 nm and 590 nm for excitation and emission, respectively.

[10] = test system: primary porcine hepatocytes; experiment: Cell viability, Neutral red assay; assay type: cell-based; settings: S. suis 10^4 CFU/mL in combination with inhibitor 50 µM, 24 h
Method: Porcine cryopreserved primary hepatocytes were obtained from Primacyt Cell Culture Company (Schwerin, Germany). Lonza Group Ltd. (Biocenter Ltd., Szeged, Hungary) supplied the thawing, plating, and maintenance media. The cytotoxic effects of inhibitors MI-432, MI-471, and MI-476 were tested on the viability of primary hepatocytes using the NR method. The hepatocytes were cultivated on a 96-well plate for 24 h, followed by incubation with the inhibitors at 0, 50, and 100 µM for an additional 24 h. Only cell maintenance medium was used to incubate the control cells. The plate underwent incubation together with NR dye for 2 h. Hepatocyte viability was recorded at 540 nm with a SpectraMax iD3 microplate reader.

SARS-CoV-2 = test system: SARS-CoV-2; set-up: method as in PMID 32703818; settings: human airway cells, synergistically in combination with furin inhibitor MI-1851; cited from earlier work
monkey CYP1A2 enzymes = settings: cited from earlier work
porcine hepatocytes = experiment: IL-6 production, porcine IL-6 ELISA; assay type: cell-based; settings: S. suis 10^4 CFU/mL in combination with inhibitor, 24 h
Method: (§3) After 24 h incubation time, the cell-free supernatants from […], MI-471, and MI-476 exposure were sampled from IPEC-J2 cells and from porcine hepatocytes. The changes in cytokine levels were detected with porcine IL-6 ELISA kits. The manufacturer’s instructions were followed to treat the supernatants and measured by a SpectraMax iD3 microplate reader at 450 nm.

IPEC-J2 cells [11] = experiment: IL-6 production, porcine IL-6 ELISA; assay type: cell-based; settings: IPEC-J2, S. suis 10^4 CFU/mL in combination with inhibitor, 24 h
Method: as §3

IPEC-J2 cells [12] = experiment: Cell viability, Neutral red assay; assay type: cell-based, porcine; settings: IPEC-J2, S. suis 10^4 CFU/mL in combination with inhibitor 50 µM, 24 h
Text: The IPEC-J2 cell line is unique as it is non-transformed and non-tumorigenic. IPEC-J2 cells are derived from intestinal enterocytes extracted from the jejunum of neonatal unsuckled piglets. IPEC-J2 cells were gifted by Dr. Jody Gookin (Department of Clinical Sciences, College of Veterinary Medicine, North Carolina State University, Raleigh, NC, USA). […] The cells had undergone passage around 50 times. […] This experiment included plain DMEM/F12 medium as a control. At the end of the final treatments (24 h), the ratio of viable cells was measured by absorbance at 540 nm wavelength with a SpectraMax iD3 microplate reader.

[13] = E. fecalis, source 442, 18–24 h at 37 °C, read-out: MIC
[14] = B. cepacia, source 20-10299, 18–24 h at 37 °C, read-out: MIC

Chain of CYP2D6 (P10635 whole entry): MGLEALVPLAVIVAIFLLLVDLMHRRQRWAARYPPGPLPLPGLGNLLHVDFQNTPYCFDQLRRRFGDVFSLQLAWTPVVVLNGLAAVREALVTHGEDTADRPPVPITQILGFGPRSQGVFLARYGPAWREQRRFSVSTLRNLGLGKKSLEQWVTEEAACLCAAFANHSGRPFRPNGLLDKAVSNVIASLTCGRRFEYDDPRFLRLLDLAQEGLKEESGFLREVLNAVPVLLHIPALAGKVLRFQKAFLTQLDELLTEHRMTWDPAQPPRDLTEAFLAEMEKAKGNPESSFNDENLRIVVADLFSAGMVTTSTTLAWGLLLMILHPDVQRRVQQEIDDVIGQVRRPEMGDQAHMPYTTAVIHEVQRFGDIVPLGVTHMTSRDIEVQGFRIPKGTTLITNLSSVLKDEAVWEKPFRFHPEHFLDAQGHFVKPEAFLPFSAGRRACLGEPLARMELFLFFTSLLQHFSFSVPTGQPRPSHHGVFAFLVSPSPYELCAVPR

CN(C)[C@@H]1C(O)=C(C(N)=O)C(=O)[C@@]2(O)C(O)=C3C(=O)c4c(O)cccc4[C@@](C)(O)[C@H]3C[C@@H]12 [tetracycline]
S. suis strains sensitive [1]: 4%

CCN1CCN(c2cc3c(cc2F)c(=O)c(C(=O)O)cn3C2CC2)CC1 [enrofloxacin]
S. suis strains sensitive [1]: more than 95%

CO/N=C(\C(=O)N[C@@H]1C(=O)N2C(C(=O)O)=C(CSC(=O)c3ccco3)CS[C@H]12)c1csc(N)n1 [ceftiofur]
S. suis strains found to be sensitive [1]: 97%

O=c1cc(-c2ccccc2)oc2c1ccc1ccccc12 [α-naphthoflavone, reference compound]
CYP1A2 activity (CYP1A2): significantly suppressed

COc1ccc(-c2cccc(S(=O)(=O)N[C@@H](Cc3cccc(C(=N)N)c3)C(=O)N3CCC(NC(=O)NC(C)(C)C)CC3)c2)c(OC)c1 [MI-485]
MIC [2]: >800 µM
MIC [3, 13]: >800 µM
MIC [4]: 100 to 200 µM
MIC ([4]; read-out: MIC): 200 µM (≈ 133 µg/mL)
MIC [5]: >800 µM
MIC [6]: >800 µM
MIC (S. suis serotype 2): 50 µM (≈ 33.2 µg/mL)
MIC [7]: >800 µM
MIC [8, 14]: 800 µM (≈ 532 µg/mL)

amoxicillin–clavulanic acid
S. suis strains found to be sensitive [1]: 100%

CS(=O)(=O)c1ccc([C@@H](O)[C@@H](CF)NC(=O)C(Cl)Cl)cc1 [florfenicol]
S. suis strains sensitive [1]: more than 95%

C=C[C@H]1C[N@@]2CC[C@H]1C[C@@H]2[C@@H](O)c1ccnc2ccc(OC)cc12 [quinidine]
CYP2D6 activity (CYP2D6): significantly suppressed

N=C(N)c1cccc(C[C@H](NS(=O)(=O)c2cccc(-c3ccc(Cl)cc3Cl)c2)C(=O)N2CCC(CCN)CC2)c1 [MI-432]
EC H2O2 production (IPEC-J2 cells [9]; IPEC-J2, S. suis 10^4 CFU/mL in combination with inhibitor 50 µM): unchanged H₂O₂ production; also recorded: antioxidant properties
EC H2O2 production (IPEC-J2 cells [9]; IPEC-J2, inhibitor alone 50 µM): unchanged H₂O₂ production
cell viability [10]: significantly decreased cell viability; also recorded: reduction in the number of viable cells
efficacy against SARS-CoV-2 (SARS-CoV-2): effective
MIC ([3]; Enterococcus): > 800 µM
MIC ([4]; read-out: MIC): 50 µM (≈ 30.1 µg/mL)
inhibition of monkey CYP1A2 enzymes (monkey CYP1A2 enzymes): significant inhibition
IL-6 levels (porcine hepatocytes): significant anti-inflammatory effects
IL-6 levels (IPEC-J2 cells [11]): significant anti-inflammatory effects
MIC [6]: > 800 µM
MIC (S. suis serotype 2; Streptococcus suis): 1.5 µM (≈ 0.904 µg/mL)
MIC (S. suis serotype 2): < 1.5625 µM
MIC (S. suis serotype 2; listed as 432): <1.5625 µM
MIC [7]: > 800 µM
MIC [8]: 800 µM (≈ 482 µg/mL)
cell viability (IPEC-J2 cells [12]): slightly less worsening of the cells; also recorded: reduction in the number of viable cells

COc1ccc(-c2cccc(S(=O)(=O)N[C@@H](Cc3cccc(C(=N)N)c3)C(=O)N3CCN(C(=O)NC4CCCCC4)CC3)c2)c(OC)c1 [MI-1900, reference compound]
efficacy against SARS-CoV-2 (SARS-CoV-2): effective

COc1ccc(-c2cccc(S(=O)(=O)N[C@@H](Cc3cccc(C(=N)N)c3)C(=O)N3CCC(N)CC3)c2)c(OC)c1 [MI-472]
MIC [2]: >800 µM
MIC [3, 13]: >800 µM
MIC ([4]; read-out: MIC): 800 µM (≈ 453 µg/mL)
MIC [5]: 400 µM (≈ 226 µg/mL)
MIC [6]: >800 µM
MIC (S. suis serotype 2): 50 µM (≈ 28.3 µg/mL)
MIC [7]: >800 µM
MIC [8, 14]: 800 µM (≈ 453 µg/mL)

From publication PMC11048155, “Antiviral Drug Candidate Repositioning for Streptococcus suis Infection in Non-Tumorigenic Cell Models” (Biomedicines, 2024)
